Source: PubChem BioAssay AID652002 (Sanford-Burnham Center for Chemical Genomics, 2013)
The source made the active and inactive calls. How the calls were made is not given here.

Key:
[1] = TRAIL sensitizers in caspase-8 expressing neuroblastoma cells, dose response, NB7 cells plus caspase-8, luminescence, panel (AID 652002); settings: NB7 neuroblastoma +caspase-8, no TRAIL, compound-alone cytotoxicity counter-screen, luminescence viability, NB7+Caspase-8
[2] = target: NB7+Caspase-8; assay: as above; settings: NB7 neuroblastoma +caspase-8, TRAIL sensitization, luminescence viability, with TRAIL
[3] = target: Tumor necrosis factor receptor superfamily member 10B (Homo sapiens) (UniProt O14763); assay: as above; settings: NB7 neuroblastoma +caspase-8, TRAIL sensitization, luminescence viability; NB7+Caspase-8; with TRAIL, mean of runs
[4] = run 1, single replicate panel EC50
[5] = run 2, single replicate panel EC50

Tumor necrosis factor receptor superfamily member 10B (Homo sapiens), sequence (O14763 whole entry, looked up): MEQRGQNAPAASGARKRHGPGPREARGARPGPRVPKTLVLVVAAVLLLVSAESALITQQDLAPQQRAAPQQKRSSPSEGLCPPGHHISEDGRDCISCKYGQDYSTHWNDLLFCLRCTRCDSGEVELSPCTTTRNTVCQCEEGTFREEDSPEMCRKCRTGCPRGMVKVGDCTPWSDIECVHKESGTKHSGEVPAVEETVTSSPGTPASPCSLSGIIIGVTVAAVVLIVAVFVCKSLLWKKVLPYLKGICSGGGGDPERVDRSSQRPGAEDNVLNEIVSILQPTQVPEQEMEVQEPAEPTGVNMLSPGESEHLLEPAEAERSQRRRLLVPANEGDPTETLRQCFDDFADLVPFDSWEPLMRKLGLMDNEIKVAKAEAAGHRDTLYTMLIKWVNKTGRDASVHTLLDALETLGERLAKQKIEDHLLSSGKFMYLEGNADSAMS

Row | SMILES | EC50 ([1]; mean of runs) | EC50 [1, 4] | EC50 [1, 5] | EC50 [2, 4] | EC50 [2, 5] | EC50 [3]
1 | O=C(N/N=C/c1cccc(OC(=O)c2ccco2)c1)c1ccc(F)cc1 | inactive | 4.46 µM | 7.04 µM | 4.82 µM | 4.55 µM | inactive
2 | CC(C)C[C@H](NC(=O)c1nc[nH]c1C(=O)N[C@@H](CCCCNC(=O)OC(C)(C)C)C(=O)OC(C)(C)C)C(=O)OCc1ccccc1 | > 12.5 µM (inactive) | > 12.5 µM | > 12.5 µM | > 12.5 µM | > 12.5 µM | > 12.5 µM (inactive)
3 | C/C(=N\NC(=O)c1csc(C)c1C)c1ccco1 | > 12.5 µM (inactive) | > 12.5 µM | > 12.5 µM | > 12.5 µM | > 12.5 µM | > 12.5 µM (inactive)
4 | Cc1ccc(N=C/C(C(=O)C(F)(F)F)=C(\O)c2cccs2)cc1 | inactive | > 12.5 µM | 1.87 µM | 6.11 µM | 4 µM | inactive
5 | CC(C)CCn1cnc2c([nH]c3cccc(Cl)c32)c1=O | > 12.5 µM (inactive) | > 12.5 µM | > 12.5 µM | > 12.5 µM | > 12.5 µM | > 12.5 µM (inactive)
6 | CN(C(=O)COC(=O)c1cnc(Cl)c(Cl)c1)C1CCCCC1 | > 12.5 µM (inactive) | > 12.5 µM | > 12.5 µM | > 12.5 µM | > 12.5 µM | > 12.5 µM (inactive)
7 | COc1ccccc1/C=C/C=N/n1c(-c2cc(-c3ccccc3)n[nH]2)n[nH]c1=S | > 12.5 µM (inactive) | > 12.5 µM | > 12.5 µM | > 12.5 µM | > 12.5 µM | > 12.5 µM (inactive)
8 | O=C1c2ccc(Cl)cc2S(=O)(=O)c2cccc(C(=O)N3CCC(Cc4ccccc4)CC3)c21 | > 12.5 µM (inactive) | > 12.5 µM | > 12.5 µM | > 12.5 µM | > 12.5 µM | > 12.5 µM (inactive)
9 | O=C(NC(=O)c1ccccc1)Nc1ccccc1 | > 12.5 µM (inactive) | > 12.5 µM | > 12.5 µM | > 12.5 µM | > 12.5 µM | > 12.5 µM (inactive)
10 | CCOC(=O)C(=C1Nc2ccccc2N1)n1c(-c2cccnc2)nc2ccccc21 | inactive | > 12.5 µM | 10.5 µM | > 12.5 µM | 9.47 µM | inactive
11 | CCC(C)c1ccc(O)c(NC(=S)NC(=O)c2cccs2)c1 (stereo not given) | inactive | 5.97 µM | 8.18 µM | > 12.5 µM | 7.09 µM | inactive
12 | O=C(ONC1=NCCCCC1)c1ccc(Cl)cc1 | inactive | > 12.5 µM | 7.44 µM | > 12.5 µM | > 12.5 µM | > 12.5 µM (inactive)
13 | Cc1cc2nc3ccc(N(C)C)cc3nc2cc1N | > 12.5 µM (inactive) | > 12.5 µM | > 12.5 µM | > 12.5 µM | 10.9 µM | inactive
14 | O=C(NNC(=O)c1cc(OCC(F)(F)F)ccc1OCC(F)(F)F)c1ccc(Cl)c(Cl)c1 | > 12.5 µM (inactive) | > 12.5 µM | > 12.5 µM | > 12.5 µM | > 12.5 µM | > 12.5 µM (inactive)
15 | CSc1ccc(/C=C/c2ccc3cccc(O)c3n2)cc1 | inactive | 7.93 µM | > 12.5 µM | > 12.5 µM | 6.31 µM | inactive
16 | Cc1ccn2cc(C(=O)Nc3ccc4c(c3)OCCO4)nc2c1 | inactive | 7.08 µM | 8.4 µM | > 12.5 µM | 4.29 µM | inactive
17 | CCCCCCCn1c2c(c(=N)c3ccccc31)CCC2 | > 12.5 µM (inactive) | > 12.5 µM | > 12.5 µM | > 12.5 µM | 4.65 µM | inactive
18 | CCN(CC)c1ccc(/C=N/NC(=O)c2ccco2)cc1 | > 12.5 µM (inactive) | > 12.5 µM | > 12.5 µM | > 12.5 µM | > 12.5 µM | > 12.5 µM (inactive)
19 | Cc1cc(NC(=O)C2CCCC2)nc2c1c(=O)oc1ccccc12 | > 12.5 µM (inactive) | > 12.5 µM | > 12.5 µM | > 12.5 µM | > 12.5 µM | > 12.5 µM (inactive)
20 | COc1ccc(-c2nc(-c3ccc(NC(=O)c4ccncc4)cc3)no2)cc1OC | > 12.5 µM (inactive) | > 12.5 µM | > 12.5 µM | > 12.5 µM | > 12.5 µM | > 12.5 µM (inactive)
